3 compounds from patent US20220282217A1, “COMPOSITIONS AND METHODS FOR PREPARING T CELL COMPOSITIONS AND USES THEREOF” (priority 2019, published 2022) can be followed below.

One test deals with CD8+ T cells. As to the kind of experiment: Ex vivo induction of antigen-specific CD8 T cells (FLT3L-treated PBMCs), MHC tetramer/multimer readout. It counts as cell-based, human. The arrangement: key to Epitope prefixed with '*': positive CD8+ T cell response: The epitopes that are prefixed with ‘*’, were shown to induce positive CD8+ T cell response in either one or both the donors; key to Immunogenicity (#donors/2): positive CD8+ T cell response in either one or both the donors (marked as 1 or 2 in column 6 respectively); positive CD8+ T cell response in either one or both the donors (marked as 1 or 2 in column 6 respectively). Particulars: HLA-A02:01. As for the experimental part:
Step 1: Plate 5 million PBMCs (or cells of interest) in each well of 24 well plate with FLT3L in 2 mL AIM V media Step 2: Peptide loading and maturation—in AIMV 1. Mix peptide pool of interest (except for no peptide condition) with PBMCs (or cells of interest) in respective wells.
3. Mix Maturation cocktail (including TNF-α, IL-1β, PGE1, and IL-7) to each well after incubation. Step 3: Add human serum to each well at a final concentration of 10% by volume and mix. Step 4: Replace the media with fresh RPMI+10% HS media supplemented with IL7+IL15. Step 5: Replace the media with fresh 20/80 media supplemented with IL7+IL15 during the period of incubation every 1-6 days. Step 6: Plate 5 million PBMCs (or cells of interest) in each well of new 6-well plate with FLT3L in 2 ml AIM V media Step 7: Peptide loading and maturation for re-stimulation—(new plates) 1. Mix peptide pool of interest (except for no peptide condition) with PBMCs (or cells of interest) in respective wells
1. […]
MHC tetramers are purchased or manufactured on-site according to methods known by one of ordinary skill, and are used to measure peptide-specific T cell expansion in the immunogenicity assays. […] Cells are acquired on a LSR Fortessa (Becton Dickinson) instrument, and are analyzed by use of FlowJo software (Becton Dickinson). […]

The next test deals with HLA-A03.01 (Homo sapiens, UniProt P04439). As to the kind of experiment: Class I MHC peptide binding affinity (displacement of radiolabeled reference peptide). Particulars: allele A03.01; read-out: Observed Affinity (IC50; (nM)).
Test [1] addresses 293T cells transduced with GATA3 neoORF, expressing the HLA of interest (Homo sapiens, UniProt P04439). The test is described as follows: Presentation of GATA3 neoantigens: HLA-eluted peptides by targeted MS/MS (PRM) (Table 14). It counts as cell-based. The note with it: GATA3 neoORF transduced 293T cells expressing HLA-A*03:01 protein. As for the experimental part: (§1) To assess whether antigens could be processed and presented from the larger polypeptide context, peptides eluted from HLA molecules isolated from cells expressing the genes of interest were analyzed by tandem mass spectrometry (MS/MS).
(§2) Between 50 and 700 million of the transduced cells expressing peptides encoded by the GATA3 neoORF sequence were cultured and peptides were eluted from HLA-peptide complexes using an acid wash. Eluted peptides were then analyzed by targeted MS/MS using PRM. Spectral comparison between peptides derived from GATA3 neoORF and corresponding synthetic peptides were performed to confirm each detection.

For test [2], the system named is 293T cells transduced with GATA3 neoORF, expressing the HLA of interest. Described as above. The class given is cell-based, human. Particulars: GATA3 neoORF transduced 293T cells expressing HLA-A*11:01 protein. As for the experimental part:
as §1, §2

In test [3] the target is HLA-A02.01 (Homo sapiens, UniProt P04439, D140Y/D185E/D98H/E176V/E277Q/G131W/G231S/I119V/I121R/I166T/I218V/L300P/L318F/N151K/N90K/P208A/P217A/Q86G/Q94H/R138H/R169H/T345S). The test is described as follows: Class I MHC peptide binding affinity (displacement of radiolabeled reference peptide). Summed up:
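MHC class I complexes were loaded with a radiolabeled reference peptide, then exposed to test peptides over a range of concentrations for 2 days. Reference peptide still bound to the complexes was quantified by size-exclusion gel filtration.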

The target in a further test is Class I MHC. As to the kind of experiment: Class I MHC peptide binding affinity, any other or unspecified HLA allele named in the row. Particulars: EGFR T790M peptides; HLA allele B08.02. The arrangement: species or system human.
The next test relates to HLA-A24.02. The test is described as follows: Class I MHC peptide binding stability (pMHC-I dissociation, 125I-labeled light chain). The arrangement: species or system human.
Test [4] deals with T1, HLA-A02.01 (Homo sapiens, UniProt P04439, D140Y/D185E/D98H/E176V/E277Q/G131W/G231S/I119V/I121R/I166T/I218V/N151K/N90K/P208A/P217A/Q86G/Q94H/R138H/R169H).
T1 construct: made in house; host or cells: E. coli
Described as above.

Where a SMILES comes first, the peptide text is derived from it.

On to VLDCCISLL, for which the “Epitope prefixed with '*': positive CD8+ T cell response” value with CD8+ T cells (in either one or both the donors) was “*VLDCCISLL”. The “Immunogenicity (#donors/2)” value with CD8+ T cells (positive CD8+ T cell response, number of donors out of 2) was 1.
For orientation: IC50 means the concentration needed to halve the response being measured. Regarding `CC[C@H](C)[C@H](NC(=O)[C@@H](N)CCCCN)C(=O)N[C@@H](CCSC)C(=O)N[C@@H](Cc1ccccc1)C(=O)N[C@@H](C)C(=O)N[C@H](C(=O)N[C@@H](CC(C)C)C(=O)N[C@@H](CCC(N)=O)C(=O)N[C@@H](CCCNC(=N)N)C(=O)O)[C@@H](C)O` (H-KIMFATLQR-OH; N-terminus and C-terminus assumed), at HLA-A03.01, the IC50 worked out at 2.5 nM. The “detected by mass spectrometry (peptide eluted from HLA-peptide complexes)” value in test [1] and in test [2] was “detected” throughout.
Take `CC[C@H](C)[C@H](NC(=O)[C@H](CC(C)C)NC(=O)[C@@H](N)CCC(N)=O)C(=O)N[C@@H](CCSC)C(=O)N[C@@H](CCC(N)=O)C(=O)N[C@@H](CC(C)C)C(=O)N[C@@H](CCSC)C(=O)N1CCC[C@H]1C(=O)N[C@@H](Cc1ccccc1)C(=O)O`: the Kd on HLA-A02.01 [3] (EGFR T790M peptides, HLA allele A02.01, read-out: Affinity) was 193 nM; on Class I MHC, 5590 nM. For the same compound, on HLA-A02.01 [3] (allele A02.01, read-out: Observed Affinity (IC50, (nM))), the IC50 is 227 nM. Further, the “Stability (half-life (hr.))” value in the test on HLA-A24.02 (EGFR T790M peptides, HLA allele A24.02) turned out to be 22.12 min; on HLA-A02.01 [4] (EGFR T790M peptides, HLA allele A02.01), 20.44 min. Besides, the “Stability (T1/2 (h))” value in the test with HLA-A24.02 (allele A24.02) is 0.4 h; at HLA-A02.01 [4] (allele A02.01) it was 0.3 h.
